What was measured:
[1] = Solubility in RPMI 1640 medium, precipitation seen by bright field optical microscopy; conditions: DMSO 1%
Method: The latter medium was selected, since we used it for the cellular assays. […] Then we monitored the formation of (not detectable in the previous experiment) aggregated species in prodrug solutions that appeared transparent (concentrations < 50 µM) by using dynamic light scattering. […]
Solubility of drugs in aqueous buffers
Observing prodrug precipitation by using bright field optical microscopy […]
glutamine (1 %), and penicillin/streptomycin (1 %) was filled into 96-well microtiter plates (100 µL for each well) and compounds in DMSO stock solution (1 µL) were added. Each well was monitored by using bright field optical microscopy both immediately after […]

[2] = tested on: A2780 cells; assay: Total intracellular ROS (CM-DCFH-DA), A2780; type: cell-based, human; conditions: 2 h
Method: Monitoring total intracellular ROS (tROS)
A2780 cells were seeded in RPMI 1640 medium containing 5% FBS, 1% L-glutamine and 1% penicillin/streptomycin in a 24-well microtiter plate (total volume 0.5 mL) at a density of 200 cells/µL one day before the experiment. On the day of the experiment, the cells were washed twice with DPBS buffer and the medium was replaced with HBSS (Hanks' Balanced Salt solution, 500 μL). CM-DCFH-DA (5-(6-)chloromethyl-2',7'- dichlorodihydrofluorescein diacetate, Thermo- Fisher) solution (0.1 mM in DMSO, 5 μL) was added (final concentration 1 µM) and the cells were incubated in the dark chamber filled with CO2 (5%) at 37 °C for 15 min. […] Finally, the fluorescence of live cells (λex = 488 nm, λem = 525 nm) in the suspensions was determined by using flow cytometry (Figure 4A, 5C).
Intracellular ROS release in Jurkat cells was monitored analogously (Figure S58).
Figure S58. […] OY-axis “Fluorescence”: the increase of the mean fluorescence (λex = 488 […]

[3] = tested on: mononuclear cells (MNCs) from healthy donors; assay: Viability of primary mononuclear cells (CellTiter Glo); type: cell-based, human; conditions: primary MNC from six healthy donors, 48 h
Method: Afterwards, the cells were washed with DPBS and a fresh portion of RPMI 1640 medium containing 5% FBS, 1% L-glutamine and 1% penicillin/streptomycin (1 mL) was added.
The fluorescence images were taken with a Zeiss Axio Vert.A1 fluorescence microscope […]
For SBLF9 the same procedure was applied except that Ham's F-12K (Kaighn's)-Medium supplemented with 15 % FBS, 2 % non-essential amino acid mix, and 1 % penicillin/streptomycin was used for cell seeding and incubation with the prodrug or the carrier. A cell density of 40 cells/µL was used.
Determination of viability of primary cancer (CLL) and normal (MNC) cells in the […]
Clinical samples from chronic lymphocytic leukemia (CLL) patients (N=6, CLL cells) and healthy donors (N=6; peripheral blood mononuclear cells, MNCs) were collected at the University Hospital Heidelberg, Germany. Informed consent was obtained in accordance with the Declaration of Helsinki. Sample collection and analysis was approved by the ethics committee of the University of Heidelberg (S-254/2016). Blood was separated by a Ficoll gradient (GE Healthcarey), and cells were cryopreserved. […]
4x10^4 cells per well. […] Cell viability was assessed by quantification of ATP (CellTiter Glo®, Promega) 48 hours after drug application.
Luminescence was measured on a Tecan Infinite F200 Microplate Reader. Viability was calculated as % of solvent (DMSO) treated control. […]

CC1(C)OB(c2ccc(COC(=O)N(Cc3cn(Cc4ccc(Cn5cc(Cc6ccccc6)nn5)cc4)nn3)[c-]3cccc3)cc2)OC1(C)C.[Fe+2].c1cc[cH-]c1 [2c]
Solubility ([1]; 48 h incubation in RPMI 1640, FBS 5%, first signs of precipitation): 30 µM
first signs of precipitation ([1]; immediately after dilution in RPMI 1640, FBS 5%): 30 µM
total ROS (tROS) vs background [2]: significantly higher than its background levels
IC50 [3]: 12 ± 3 µM
